Test results published in US11142522B2, “Compounds, compositions and methods for cancer treatment” (THE BROAD INSTITUTE, INC., priority 2017, dated 2021).
pEC50, pIC50: −log10 of the molar value. Where “and” joins values, the source holds several entries; their conditions need not be identical. Equal entries are not always repeated. Marks after values point to notes of the source that are not given here.

Tests used:
[1] = tested on: HeLa cells; experiment: HeLa cell viability assay (compound sensitivity testing); format: cell-based; conditions: Homo sapiens, incubated for 48 hours
Experimental: 1000 HeLa (DMEM), cells were plated in a 384-well plate in 40 μl of corresponding growth media supplemented with 10% Fetal Bovine Serum. 24 hours after plating, indicated compounds were added at indicated concentrations and incubated for 48 hours. Cell viability was assessed as described in Compound library screening in NCI-H1734 and A549 cell lines.

[2] = tested on: xenograft models of human tumors; experiment: Murine xenotransplantation models of human cancer (overall); format: in vivo, mice; conditions: monotherapy, p.o., different xenograft models
Experimental: (§1) The anti-tumor activity of Compound 1 was examined in murine xenotransplantation models of human cancer. For this purpose, mice were implanted subcutaneously with tumor cells. At a mean tumor size of 20-40 mm^2 animals were randomized into treatment and control groups (at least n=10 animals/group) and treatment started with vehicle only or Compound 1 (formulation: 90% PEG400/10% Ethanol; application route: per os (“p.o.”), orally). The oral application volume was 10 ml/kg. In the case of twice daily treatments, the time interval between two applications per day was 6-7h. The tumor size and the body weight were determined at least weekly. The tumor area was detected by means of an electronic caliper [length (mm)×width (mm)]. The experiment was ended when the tumors of the vehicle control reached the pre-determined ethical endpoint based on German and European animal welfare regulations. In vivo anti-tumor efficacy is presented as T/C ratio at study end (Treatment/Control; mean tumor area or weight of treatment group/mean tumor area or weight of control group) in Table 7. A compound having a T/C below 0.5 is defined as active (i.e., effective). Statistical analysis was assessed using SigmaStat software. A one-way analysis of variance was performed and differences to the control were compared by a pair-wise comparison procedure (Dunn's method).

[3] = tested on: HeLa; experiment: Cell proliferation measurement (Cell Titer Glo, 72 h); format: cell-based; conditions: Homo sapiens, Cervical Cancer
Experimental: (§2) The antiproliferative activity of the compounds of the general formula (I) was examined in vitro in human cancer cells. For this purpose, 1000 cells, including HuT78 cells, 500 HeLa cells, or 500 A2058 cells, were plated in 384-well plates with appropriate growth medium and incubated at 37° C. overnight. After 24 h, the cells on the test plate were treated with the compounds of the general formula (I) as and incubated at 37° C. for 72 h. The compounds were added to the cells by means of an HP D300 digital dispenser in a 10 (or more)—step dilution series. As control, the cells were treated with vehicle (DMSO at 0.3% final concentration). After 72 h, the cells were treated with 20 µl/well of 50% CTG solution in PBS (Promega Cell Titer Glo (catalogue # G755B and G756B)) and incubated at room temperature for 10 min, and luminescence was measured by means of a VICTOR V (Perkin Elmer), in order to determine cell viability at the end of treatment. The percentage effect on cell growth and the IC50 derived therefrom were determined for each test substance using the values from untreated wells (=percent viability). The IC50 values were calculated using a 4-parameter fit.

[4] = tested on: IGR37; experiment: as above; format: cell-based; conditions: Homo sapiens, IGR-37, IGR37, Melanoma
Experimental: as §2

[5] = tested on: SKMEL3; experiment: as above; format: cell-based; conditions: Homo sapiens, SK-MEL3, SKMEL3, Melanoma
Experimental: as §2

[6] = tested on: A549; experiment: as above; format: cell-based; conditions: Homo sapiens, A549, Lung adenocarcinoma, printed as (inactive)
Experimental: as §2

[7] = In vivo pharmacokinetics in dogs; conditions: female, Beagle, dog, plasma, iv, after i.v., read-out: clearance in dogs (CLp) (converted)
Experimental: For in vivo pharmacokinetic experiments test compounds were administered to non-rodents (e.g. female Beagle dogs) intravenously at doses of 0.1 to 1 mg/kg and intragastral at doses of 0.3 to 3 mg/kg formulated as solutions using solubilizers such as PEG400 in well-tolerated amounts and are usually given as short term infusion (15 min).
Blood samples were taken e.g. at 2 min, 8 min, 15 min, 30 min, 45 min, 1 h, 2 h, 4 h, 6 h, 8 h and 24 h after dosing from the vena saphena. Depending on the expected half-life additional samples were taken at later time points (e.g. 48 h, 72 h).
For pharmacokinetics after intragastral administration test compounds were given intragastral to fasted non-rodents (e.g. dogs). Blood samples were taken e.g. at 5 min, 15 min, 30 min, 45 min, 1 h, 2 h, 4 h, 6 h, 8 h and 24 h after dosing. Depending on the expected half-life additional samples were taken at later time points (e.g. 48 h, 72 h). Blood was collected into Lithium-Heparin tubes (Monovetten®, Sarstedt) and centrifuged for 15 min at 3000 rpm. […] PK parameters were calculated by non-compartmental analysis using a PK calculation software. […]
PK parameters calculated from concentration time profiles after i.g.: Cmax: Maximal plasma concentration (in mg/L); Cmaxnorm: Cmax divided by the administered dose (in kg/L); Tmax: Time point at which Cmax was observed (in h). […]

[8] = tested on: PDE3A-CRISPR A2058 cells; experiment: Dose response in A2058 cells with CRISPR knockout of PDE3A; format: cell-based, human
Experimental: as §2
CRISPR target sites were identified using the MIT CRISPR Design Tool (online MIT CRISPR design portal). For cloning of sgRNAs, forward and reverse oligonucleotides (oligos) were annealed, phosphorylated and ligated into BsmBI-digested pXPR_BRD001. Oligo sequences are as follows:
To produce lentivirus, 293T cells were co-transfected with pXPR_BRD001, psPAX2 and pMD2.G using calcium phosphate. Infected A2058 and HeLa cells were selected with 2 μg/ml of puromycin.

[9] = target: T1, human full length PDE3A (Homo sapiens, UniProt Q14432); experiment: PDE3A enzyme inhibition, 3H-cAMP scintillation proximity assay; format: biochemical
T1 construct: Sf9 cells overexpressing human full length PDE3A; purchased SB Drug Discovery, UK; host or cells: Sf9 insect cells (cell extract, not purified)
Experimental: (§3) The commercially available ^3H-cAMP Scintillation Proximity Assay (SPA, Perkin Elmer) system was used for enzyme inhibition studies. For the determination of the in vitro effect of test substances on the PDE3A reactions 2 μl of the respective test compound solution in DMSO (serial dilutions) were placed in wells of microtiter plates (Isoplate-96/200W; Perkin Elmer). 50 μl of a dilution of PDE3A cell extract from Sf9 cells overexpressing human full length PDE3A (SB Drug Discovery, UK) in buffer A (50 mM Tris/HCl pH 7.5, 8.3 mM MgCl2, 1.7 mM EDTA, 0.2% BSA) was added. The dilution of the PDE3A cell extract was chosen such that the reaction kinetics was linear and less than 70% of the substrate was consumed (typical dilution 1:5000). The reaction was started by addition of 50 μl (0.025 μCi) of 1:2000 in buffer A w/o BSA diluted substrate [8-^3H] adenosine 3′, 5′-cyclic phosphate (1 μCi/μl; Perkin Elmer). After incubation at room temperature for 60 min, the reaction was stopped by addition of 25 μl of a suspension containing 18 mg/ml yttrium scintillation proximity beads (Perkin Elmer) in water. The microtiter plates were sealed and measured in a Microbeta scintillation counter (PerkinElmer Wallac). IC50 values were determined from sigmoidal curves by plotting percentage PDE3A activity vs log compound concentration.

[10] = In vitro metabolic stability in cryopreserved human hepatocytes; format: in vitro ADME; conditions: 1 μM test compound
Experimental: Cryopreserved Hepatocytes (e.g. purchased from Celsis InVitroTechnologies) were briefly thawed, washed with 45 mL pre-warmed in in vitro GRO HT medium and centrifuged for 5 min at 50×g. The cell pellet was resuspended in 5 ml of Krebs-Henseleit […] (KHB). Cell viability was determined by trypan blue exclusion.
For the metabolic stability assay liver cells were distributed in WME containing 5% FCS to glass vials at a density of 1.0×10^6 vital cells/ml. The test compound was added to a final concentration of 1 μM. During incubation, the hepatocyte suspensions were continuously shaken at 580 rpm and aliquots were taken at 2, 8, 16, 30, 45 and 90 min, to which equal volumes of cold methanol were immediately added. Samples were frozen at −20° C. over night, after subsequently centrifuged for 15 minutes at 3000 rpm and the supernatant was analyzed with an Agilent 1290 HPLC-system with LCMS/MS detection.
The half-life of a test compound was determined from the concentration-time plot. From the half-life the intrinsic clearances were calculated. Together with the additional parameters liver blood flow, amount of liver cells in vivo and in vitro. The hepatic in vivo blood clearance (CL) and the maximal oral bioavailability (Fmax) was calculated.

[11] = tested on: IGR-37 xenograft; experiment: In vivo xenotransplantation model; design: species or system mice; conditions: IGR-37, Melanoma, 40 mg/kg 2QD p.o.
Experimental: as §1

[12] = tested on: SK-MEL3 xenograft; experiment: In vivo xenotransplantation model; design: species or system mice; conditions: SK-MEL3, Melanoma, 40 mg/kg 2QD p.o.
Experimental: as §1

[13] = tested on: A2058 xenograft; experiment: In vivo xenotransplantation model; design: species or system mice; conditions: A2058, Melanoma, 40 mg/kg 2QD p.o.
Experimental: as §1

[14] = tested on: HeLa xenograft; experiment: In vivo xenotransplantation model; design: species or system mice; conditions: Cervical cancer, 10 mg/kg 2QD p.o., study end
Experimental: as §1

[15] = target: T2, human full length PDE3B (Homo sapiens, UniProt Q13370); experiment: PDE3B enzyme inhibition, 3H-cAMP scintillation proximity assay; format: biochemical
T2 construct: Sf9 cells overexpressing human full length PDE3B; purchased SB Drug Discovery, UK; host or cells: Sf9 insect cells (cell extract, not purified)
Experimental: as §3, with “PDE3B” for “PDE3A”, “1:6000).” for “1:5000).”

T1 sequence (Q14432 whole entry): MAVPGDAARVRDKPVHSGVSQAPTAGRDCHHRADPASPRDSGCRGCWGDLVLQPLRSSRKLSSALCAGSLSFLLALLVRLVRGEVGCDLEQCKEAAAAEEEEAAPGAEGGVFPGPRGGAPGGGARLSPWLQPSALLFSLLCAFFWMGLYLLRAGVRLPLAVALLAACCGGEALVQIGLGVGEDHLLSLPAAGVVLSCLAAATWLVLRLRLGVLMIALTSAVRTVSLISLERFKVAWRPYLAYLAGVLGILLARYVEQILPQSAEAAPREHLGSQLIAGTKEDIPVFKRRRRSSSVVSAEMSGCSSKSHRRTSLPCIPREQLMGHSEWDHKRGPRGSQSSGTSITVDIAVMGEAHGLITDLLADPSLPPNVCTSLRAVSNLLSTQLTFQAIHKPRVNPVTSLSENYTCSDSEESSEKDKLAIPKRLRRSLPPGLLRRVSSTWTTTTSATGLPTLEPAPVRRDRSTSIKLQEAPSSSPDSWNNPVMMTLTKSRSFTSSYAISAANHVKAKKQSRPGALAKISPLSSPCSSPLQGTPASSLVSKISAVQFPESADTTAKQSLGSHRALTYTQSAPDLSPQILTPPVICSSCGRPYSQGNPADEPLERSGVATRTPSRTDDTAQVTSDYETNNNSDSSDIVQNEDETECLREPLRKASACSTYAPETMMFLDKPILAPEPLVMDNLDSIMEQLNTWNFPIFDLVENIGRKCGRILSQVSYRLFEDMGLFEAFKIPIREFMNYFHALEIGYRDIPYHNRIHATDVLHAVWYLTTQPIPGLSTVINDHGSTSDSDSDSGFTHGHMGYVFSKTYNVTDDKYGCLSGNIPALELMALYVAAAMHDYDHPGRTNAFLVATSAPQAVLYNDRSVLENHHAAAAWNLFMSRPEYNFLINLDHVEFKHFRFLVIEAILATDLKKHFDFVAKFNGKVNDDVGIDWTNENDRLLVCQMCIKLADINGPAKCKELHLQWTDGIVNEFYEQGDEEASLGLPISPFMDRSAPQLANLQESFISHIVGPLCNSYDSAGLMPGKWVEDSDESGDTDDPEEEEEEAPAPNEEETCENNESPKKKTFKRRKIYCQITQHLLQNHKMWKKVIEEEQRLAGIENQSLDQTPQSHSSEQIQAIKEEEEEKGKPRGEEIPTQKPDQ
T2 sequence (Q13370 whole entry): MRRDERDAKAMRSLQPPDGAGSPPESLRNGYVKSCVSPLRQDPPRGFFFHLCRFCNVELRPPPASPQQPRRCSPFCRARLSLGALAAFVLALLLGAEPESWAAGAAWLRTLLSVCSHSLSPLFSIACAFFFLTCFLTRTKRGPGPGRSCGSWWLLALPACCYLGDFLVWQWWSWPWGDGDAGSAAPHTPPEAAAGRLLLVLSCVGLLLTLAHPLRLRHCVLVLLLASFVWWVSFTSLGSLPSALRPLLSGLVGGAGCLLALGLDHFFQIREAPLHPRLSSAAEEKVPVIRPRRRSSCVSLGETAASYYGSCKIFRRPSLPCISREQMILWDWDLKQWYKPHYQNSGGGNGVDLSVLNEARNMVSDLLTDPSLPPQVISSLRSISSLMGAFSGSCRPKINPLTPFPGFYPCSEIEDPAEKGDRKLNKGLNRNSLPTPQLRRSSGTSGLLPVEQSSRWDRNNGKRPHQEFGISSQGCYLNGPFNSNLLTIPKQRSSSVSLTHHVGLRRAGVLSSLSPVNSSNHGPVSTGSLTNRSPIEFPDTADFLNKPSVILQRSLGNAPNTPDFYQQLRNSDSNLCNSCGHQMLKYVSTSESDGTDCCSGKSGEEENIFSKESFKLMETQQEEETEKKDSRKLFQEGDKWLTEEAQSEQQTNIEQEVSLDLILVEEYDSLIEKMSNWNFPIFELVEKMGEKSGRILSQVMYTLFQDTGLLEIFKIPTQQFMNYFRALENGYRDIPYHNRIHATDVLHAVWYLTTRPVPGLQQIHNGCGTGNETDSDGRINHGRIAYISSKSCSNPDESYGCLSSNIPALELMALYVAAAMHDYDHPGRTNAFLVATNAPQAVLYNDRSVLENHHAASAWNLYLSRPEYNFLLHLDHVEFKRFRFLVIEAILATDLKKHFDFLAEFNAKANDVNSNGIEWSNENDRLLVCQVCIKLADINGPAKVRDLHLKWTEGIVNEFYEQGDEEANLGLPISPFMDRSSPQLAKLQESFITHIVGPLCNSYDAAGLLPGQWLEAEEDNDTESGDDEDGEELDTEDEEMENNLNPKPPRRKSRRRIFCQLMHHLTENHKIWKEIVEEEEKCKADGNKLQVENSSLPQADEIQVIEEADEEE

| pEC50 [1] | IC50 [3] [nM] | IC50 [5] [nM] | IC50 [6] [nM] | clearance [7] [mL/min/kg] | pIC50 [9] | predicted maximal oral bioavailability (Fmax) [10] [%] | pIC50 [15] | Compound | anti-tumor efficacy [2] | IC50 [4] [nM] | response to cytotoxic effects ([8]; ectopic expression of GFP) | response to cytotoxic effects ([8]; ectopic expression of PDE3B) | response to cytotoxic effects ([8]; ectopic expression of PDE3B, listed as compound 1) | T/C (mean final tumor weight of treatment versus control) [11] [b)*] | T/C (mean final tumor weight of treatment versus control) [12] [b)*] | T/C (mean final tumor weight of treatment versus control) [13] [b)*] | T/C (mean tumor area of treatment versus control) [14] [a)*] |
| --- | --- | --- | --- | --- | --- | --- | --- | --- | --- | --- | --- | --- | --- | --- | --- | --- | --- |
| 8.96 | 0.852 | 1.01 | > 600 | 12.8 | 8.30 and 8.34 | 66 |  | C[C@@H]1CC(=O)NN=C1c1cc(F)c(N2CCOCC2)c(F)c1 [Compound 1, (5R)-6-[3,5-difluoro-4-(morpholin-4-yl)phenyl]-5-methyl-4,5-dihydropyridazin-3(2H)-one] | potent anti-tumor efficacy | 2.19 | lack of response | re-sensitized | restores sensitivity | 0.11 | 0.05 | 0.07 | 0.01 |
| 8.72 |  |  |  |  | 8.40 |  | 7.96 | C[C@@H]1CC(=O)NN=C1c1cc(Cl)c(N2CCOCC2)c(Cl)c1 [Compound 2, 6-[3,5-dichloro-4-(morpholin-4-yl)phenyl]-5-methyl-4,5-dihydropyridazin-3(2H)-one] |  |  |  |  |  |  |  |  |  |
|  |  |  |  | 28.3 |  | 49 |  | C[C@@H]1CC(=O)NN=C1c1ccc(N2CCOCC2)c(F)c1 [(5R)-6-[3-fluoro-4-(morpholin-4-yl)phenyl]-5-methyl-4,5-dihydropyridazin-3(2H)-one, reference compound] |  |  |  |  |  |  |  |  |  |
